# Patent EP2582674B1 (Cymabay Therapeutics, Inc., priority 2010, dated 2011)
# Columns and labels:
# human GPR120 = molecular target: T1, human GPR120 (Homo sapiens, UniProt Q5NUL3); experiment: Intracellular Ca2+ assay in human GPR120 stable cell line (FLIPR Calcium 4 dye, Flexstation); assay type: cell-based; conditions: HEK293 cells co-expressing Gqi5; for activity at 5 µM: HEK293, % activity at 5 µM compared to the maximal activity of GW9508 at 6.7 µM (=100%), read-out: %Activity (GW9508 Reference Compound)
# T1 construct: host or cells: HEK293 cells co-expressing Gqi5
# T1 sequence (Q5NUL3 1-361): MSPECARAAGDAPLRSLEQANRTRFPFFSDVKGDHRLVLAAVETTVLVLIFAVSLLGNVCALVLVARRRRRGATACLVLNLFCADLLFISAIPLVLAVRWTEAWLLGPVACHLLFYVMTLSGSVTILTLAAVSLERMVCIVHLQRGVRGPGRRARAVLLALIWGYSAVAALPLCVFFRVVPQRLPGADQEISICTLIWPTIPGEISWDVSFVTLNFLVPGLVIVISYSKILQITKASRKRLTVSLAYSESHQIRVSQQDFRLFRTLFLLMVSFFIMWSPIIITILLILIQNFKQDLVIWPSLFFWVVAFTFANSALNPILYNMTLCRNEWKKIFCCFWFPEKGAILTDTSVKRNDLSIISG
# C57BL/6J mice [1] = experiment: Oral glucose tolerance test; assay type: in vivo; conditions: 6 h fasted male C57BL/6J mice, incremental AUC vs vehicle; for % reduction AUC glucose excursion at 100mg/kg: 100 mg/kg oral gavage 30 min before 3g/kg oral glucose; for % reduction AUC glucose excursion: Sitagliptin at 1mg/kg, 3g/kg oral glucose
# Description: (§1) 8-10 week old male C57BL/6J mice (Harlan) were maintained on regular chow diet from Harlan (2018 Teklad Global). On the day of the experiment mice were fasted for 6 hours, then randomized into groups (n=10-15) to receive the tested GPR120 agonist at doses ranging from 100mg/kg or the vehicle (1% CMC, 2% TWEEN 80). Compounds were delivered orally via gavage at 10mL/kg. Blood glucose levels were measured by glucometer (Ascensia Elite XL, Bayer) at time -30 minutes before administration of compound. Blood glucose was measured again after 30 minutes (at time 0), and then the mice were dosed orally with 3g/kg glucose at 10mL/kg. Blood glucose measurements were taken 20, 40, 60, 90 and 120 minutes after glucose administration, by glucometer (Ascensia Elite XL, Bayer).
# (§2) Glucose levels were plotted against time, and the incremental area under the curve (AUC) of the glucose excursion was determined from time 0 using Graphpad Prism 5.01. Outliers were excluded using Tukey's box plot outlier test, and statistical significance of differences in AUC of compound treatment compared to vehicle was determined by non-parametric Kruskal-Wallis test with Dunn's post test.
# Tables 2 and 3 below show the mean percentage inhibition of the glucose excursion for the fifteen animals tested in each group. The compounds were tested at 100 mg/kg and the levels of blood glucose were determined in the presence and absence of the tested compounds. The percentage of glucose reduction is reported. The tested compounds were selected as examples from the exemplified compounds. […]
# C57BL/6J mice [2] = experiment: Intra peritoneal glucose tolerance test (IPGTT); assay type: in vivo; conditions: 30 mg/kg oral gavage 30 min before 2g/kg glucose intra peritoneally, overnight fasted male C57BL/6J mice, incremental AUC of glucose excursion vs vehicle
# Description: as §1, with “day before” for “day of”, “fasted overnight,” for “fasted for 6 hours,”, “dosed intra peritoneally” for “dosed orally”, “with 2g/kg” for “with 3g/kg”
# as §2
# The compounds were tested at 30 mg/kg and the levels of blood glucose were determined in the presence and absence of the tested compounds. The percentage of glucose reduction is reported. The tested compounds were selected as Examples from the exemplified compounds. […]
Compound,activity at 5 µM (human GPR120) [%],% reduction AUC glucose excursion at 100mg/kg (C57BL/6J mice [1]; Table 3) [%],other results
"3-(4-((5-chloro-2,2-dimethyl-2,3-dihydrobenzofuran-7-yl)methoxy)-3-fluorophenyl)-2-methylpropanoic acid [Example 10]",–,–,%Activity (GW9508 Reference Compound) (human GPR120; % activity at 5 µM compared to the maximal activity of GW9508 at 6.7 µM (=100%)): 106.7955%; % reduction AUC glucose excursion at 100mg/kg (C57BL/6J mice [1]; Table 2): 58.1%; % reduction IPGTT at 30mg/kg (C57BL/6J mice [2]): 30.7%
"CC1(C)Cc2cc(Cl)cc(COc3c(F)cc(C4CC4C(=O)O)cc3F)c2O1 (racemic) [Example 35, 2-(4-((5-chloro-2,2-dimethyl-2,3-dihydrobenzofuran-7-yl)methoxy)-3,5-difluorophenyl)cyclopropanecarboxylic acid]",60.1,27.7,–
"CC(Cc1ccc(OCc2cc(F)cc3c2OC(C)(C)C3)cc1)C(=O)O (stereo not drawn) [Example 16, 3-(4-((5-fluoro-2,2-dimethyl-2,3-dihydrobenzofuran-7-yl)methoxy)phenyl)-2-methylpropanoic acid]",111,52.4,"inhibition in vivo at 30 mg/kg (C57BL/6J mice [2]; Mus musculus, 2 h, read-out: % reduction IPGTT at 30mg/kg): 19.4%"
"CC1(C)Cc2cc(Cl)cc(COc3ccc4c(c3)CCC4CC(=O)O)c2O1 (stereo not drawn) [Example 36, 2-(5-((5-chloro-2,2-dimethyl-2,3-dihydrobenzofuran-7-yl)methoxy)-2,3-dihydro-1H-inden-1-yl)acetic acid]",123,33.6,–
"N[C@@H](CC(=O)N1CCn2c(nnc2C(F)(F)F)C1)Cc1cc(F)c(F)cc1F [Sitagliptin, sitagliptin, reference compound]",–,–,% reduction AUC glucose excursion (C57BL/6J mice [1]; Table 2): 58.6%; % reduction AUC glucose excursion (C57BL/6J mice [1]; Table 3): 48.6%
